Patent publication US12479827B2, “Heteroaromatic carboxamide derivatives as plasma kallikrein inhibitors” (Boehringer Ingelheim International GmbH, priority 2020, dated 2025)

Columns and labels:
[1] = target: T1, Human PKK (Homo sapiens, UniProt P03952); assay: Inhibition of PKK using an endpoint assay (human PKK); assay type: biochemical; details: fluorogenic substrate H-Pro-Phe-Arg-AMC, 1 h room temperature, method names human or rat PKK, table does not say which
T1 construct: purchased Enzyme Research Laboratories
T1 sequence (P03952 20-390 limits assumed): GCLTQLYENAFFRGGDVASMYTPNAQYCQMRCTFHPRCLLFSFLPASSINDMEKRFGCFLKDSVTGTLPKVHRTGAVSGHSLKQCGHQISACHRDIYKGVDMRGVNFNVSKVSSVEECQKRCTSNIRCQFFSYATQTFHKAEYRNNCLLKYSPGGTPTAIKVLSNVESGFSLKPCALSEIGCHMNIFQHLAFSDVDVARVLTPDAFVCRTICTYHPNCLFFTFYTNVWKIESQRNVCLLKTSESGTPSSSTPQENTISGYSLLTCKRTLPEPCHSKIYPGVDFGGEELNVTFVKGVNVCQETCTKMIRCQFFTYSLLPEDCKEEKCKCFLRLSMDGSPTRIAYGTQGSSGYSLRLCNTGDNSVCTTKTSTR
T1 sequence (P03952 391-638 limits assumed): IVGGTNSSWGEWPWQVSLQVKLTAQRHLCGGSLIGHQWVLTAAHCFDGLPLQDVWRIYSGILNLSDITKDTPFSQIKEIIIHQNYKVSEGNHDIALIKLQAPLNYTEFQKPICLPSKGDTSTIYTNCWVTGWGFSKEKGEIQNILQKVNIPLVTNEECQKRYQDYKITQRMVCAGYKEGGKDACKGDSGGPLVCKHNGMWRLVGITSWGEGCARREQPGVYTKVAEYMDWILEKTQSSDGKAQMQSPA
Procedure, shortened: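 Human PKK inhibition measured in 100 mM Tris, 150 mM NaCl, pH 7.8, 0.1% BSA, 0.05% Tween20, 1% DMSO. Endpoint format: reaction stopped with PPACK II at 1 μM final, fluorescence read at 355 nm excitation/460 nm emission.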

[2] = target: T2, PKK in kaolin activated human platelet poor plasma (Homo sapiens, UniProt P03952); assay: Inhibition of PKK in kaolin activated human PPP; assay type: biochemical; details: 25-750 μg/mL kaolin, global fit, text b200 calls the values IC90;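 note: readout is the rate of fluorogenic substrate cleavage in rfu per min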
T2 construct: Platelet poor plasma (PPP) obtained from human wholeblood; from tissue
T2 sequence (P03952 391-638 limits assumed): as above
T2 sequence (P03952 20-390 limits assumed): as the sequence (P03952 20-390 limits assumed) above
Procedure: Platelet poor plasma (PPP) obtained from human wholeblood, anticoagulated with Na-Citrate, is incubated with various concentrations of the test compound together with either 25, 75, 250, or 750 μg/mL kaolin in assay buffer for 20 min at 37° C. such that for each kaolin dose used a concentration response is obtained for the test compound.

Row | SMILES | IC50 [1] [nM] | IC50 [2] [nM]
1 | CCOc1nc(N2CC3C(C2)C3(F)F)ccc1Cn1cnc(C(=O)N[C@@H]2CCc3c2ncn3C)c1 (stereo partly drawn) [Example 102, 1-[(6-{6,6-Difluoro-3-azabicyclo[3.1.0]hexan-3-yl}-2-ethoxypyridin-3-yl)methyl]-N-[(4R)-1-methyl-1H,4H,5H,6H-cyclopenta[d]imidazol-4-yl]-1H-imidazole-4-carboxamide] | 2.1 | 1440
2 | Cc1c(Cn2cc(C(=O)N[C@@H]3CCc4c3ncn4C)cn2)cnc(N2CC3C(C2)C3(F)F)c1C#N (stereo partly drawn) [Example 103, 1-[(5-Cyano-6-{6,6-difluoro-3-azabicyclo[3.1.0]-hexan-3-yl}-4-methylpyridin-3-yl)methyl]-N-[(4R)-1-methyl-1H,4H,5H,6H-cyclopenta-[d]imidazol-4-yl]-1H-pyrazole-4-carboxamide] | 0.7 | 531
3 | Cn1cnc2c1CC[C@H]2NC(=O)c1cnn(Cc2ccc(N3CC4CC4C3)nc2F)c1 (stereo partly drawn) [Example 104, 1-[(6-{3-Azabicyclo[3.1.0]hexan-3-yl}-2-fluoropyridin-3-yl)methyl]-N-[(4R)-1-methyl-1H,4H,5H,6H-cyclopenta[d]imidazol-4-yl]-1H-pyrazole-4-carboxamide] | 3.2 | 706
4 | Cc1c(Cn2cnc(C(=O)N[C@@H]3CCc4c3ncn4C)c2)cnc(N2CC3C(C2)C3(F)F)c1C#N (stereo partly drawn) [Example 105, 1-[(5-Cyano-6-{6,6-difluoro-3-azabicyclo[3.1.0]-hexan-3-yl}-4-methylpyridin-3-yl)methyl]-N-[(4R)-1-methyl-1H,4H,5H,6H-cyclopenta-[d]imidazol-4-yl]-1H-imidazole-4-carboxamide] | 0.5 | 117
5 | Cc1cc(N2CC3CC3C2)ncc1Cn1cnc(C(=O)N[C@@H]2CCc3c2ncn3C)c1 (stereo partly drawn) [Example 106, 1-[(6-{3-Azabicyclo[3.1.0]hexan-3-yl}-4-methylpyridin-3-yl)methyl]-N-[(4R)-1-methyl-1H,4H,5H,6H-cyclopenta[d]imidazol-4-yl]-1H-imidazole-4-carboxamide] | 9.8 | 1970
6 | CCc1nc(N2CC3C(C2)C3(F)F)ccc1Cn1cc(C(=O)N[C@@H]2CCc3c2ncn3C)nn1 (stereo partly drawn) [Example 109, 1-[(6-{6,6-Difluoro-3-azabicyclo[3.1.0]hexan-3-yl}-2-ethylpyridin-3-yl)methyl]-N-[(4R)-1-methyl-1H,4H,5H,6H-cyclopenta[d]imidazol-4-yl]-1H-1,2,3-triazole-4-carboxamide] | 0.8 | 414
7 | Cc1cc(N2CC3C(C2)C3(F)F)nc(C)c1Cn1cnc(C(=O)N[C@@H]2CCc3c2ncn3C)c1 (stereo partly drawn) [Example 111, 1-[(6-{6,6-Difluoro-3-azabicyclo[3.1.0]hexan-3-yl}-2,4-dimethylpyridin-3-yl)methyl]-N-[(4R)-1-methyl-1H,4H,5H,6H-cyclopenta[d]imidazol-4-yl]-1H-imidazole-4-carboxamide] | 8.6 | 4150
8 | Cc1cc(N2CC3C(C2)C3(F)F)nc(C)c1Cn1cc(C(=O)N[C@@H]2CCc3c2ncn3C)cn1 (stereo partly drawn) [Example 112, 1-[(6-{6,6-Difluoro-3-azabicyclo[3.1.0]hexan-3-yl}-2,4-dimethylpyridin-3-yl)methyl]-N-[(4R)-1-methyl-1H,4H,5H,6H-cyclopenta[d]imidazol-4-yl]-1H-pyrazole-4-carboxamide] | 12.6 | 2780
9 | Cn1cnc2c1CC[C@H]2NC(=O)c1cnn(Cc2ccc(N3CC4CC4C3)nc2C#N)c1 (stereo partly drawn) [Example 132, 1-[(6-{3-Azabicyclo[3.1.0]hexan-3-yl}-2-cyanopyridin-3-yl)methyl]-N-[(4R)-1-methyl-1H,4H,5H,6H-cyclopenta[d]imidazol-4-yl]-1H-pyrazole-4-carboxamide] | 1.9 | 425
10 | Cn1cnc2c1CC[C@H]2NC(=O)c1c[nH]c(Cc2ccc(N3CC4C(C3)C4(F)F)nc2)c1 (stereo partly drawn) [Example 139, 5-[(6-{6,6-Difluoro-3-azabicyclo[3.1.0]hexan-3-yl}pyridin-3-yl)methyl]-N-[(4R)-1-methyl-1H,4H,5H,6H-cyclopenta[d]imidazol-4-yl]-1H-pyrrole-3-carboxamide] | 9.6 | 774
11 | Cn1cnc2c1CC[C@H]2NC(=O)c1ccn(Cc2ccc(N3CC4C(C3)C4(F)F)nc2)c1 (stereo partly drawn) [Example 140, 1-[(6-{6,6-Difluoro-3-azabicyclo[3.1.0]hexan-3-yl}pyridin-3-yl)methyl]-N-[(4R)-1-methyl-1H,4H,5H,6H-cyclopenta[d]imidazol-4-yl]-1H-pyrrole-3-carboxamide] | 5.8 | 760
12 | Cc1nc(N2CC3C(C2)C3(F)F)ccc1Cn1ccc(C(=O)N[C@@H]2CCc3c2ncn3C)c1 (stereo partly drawn) [Example 141, 1-[(6-{6,6-Difluoro-3-azabicyclo[3.1.0]hexan-3-yl}-2-methylpyridin-3-yl)methyl]-N-[(4R)-1-methyl-1H,4H,5H,6H-cyclopenta[d]imidazol-4-yl]-1H-pyrrole-3-carboxamide] | 2 | 621
13 | Cc1nc(N2CC3C(C2)C3(F)F)ccc1Cc1cc(C(=O)N[C@@H]2CCc3c2ncn3C)c[nH]1 (stereo partly drawn) [Example 142, 5-[(6-{6,6-Difluoro-3-azabicyclo[3.1.0]hexan-3-yl}-2-methylpyridin-3-yl)methyl]-N-[(4R)-1-methyl-1H,4H,5H,6H-cyclopenta[d]imidazol-4-yl]-1H-pyrrole-3-carboxamide] | 5.8 | 731
14 | CCc1nc(N2C[C@@H]3[C@H](C)[C@@H]3C2)ccc1Cn1cnc(C(=O)N[C@@H]2CCc3c2ncn3C)c1 [Example 143, 1-({2-Ethyl-6-[(1R,5S,6R)-6-methyl-3-azabicyclo[3.1.0]hexan-3-yl]pyridin-3-yl}methyl)-N-[(4R)-1-methyl-1H,4H,5H,6H-cyclopenta-[d]imidazol-4-yl]-1H-imidazole-4-carboxamide] | 0.6 | 1170
15 | Cn1cnc2c1CC[C@H]2NC(=O)c1cc(Cc2ccc(N3CC4CC4C3)nc2C(F)F)no1 (stereo partly drawn) [Example 144, 3-[(6-{3-Azabicyclo[3.1.0]hexan-3-yl}-2-(difluoromethyl)pyridin-3-yl)methyl]-N-[(4R)-1-methyl-1H,4H,5H,6H-cyclopenta[d]imidazol-4-yl]-1,2-oxazole-5-carboxamide] | 0.8 | 248
16 | Cn1cnc2c1CC[C@H]2NC(=O)c1cc(Cc2ccc(N3CC4C(C3)C4(F)F)nc2C(F)F)no1 (stereo partly drawn) [Example 145, 3-[(6-{6,6-Difluoro-3-azabicyclo[3.1.0]hexan-3-yl}-2-(difluoromethyl)pyridin-3-yl)methyl]-N-[(4R)-1-methyl-1H,4H,5H,6H-cyclopenta-[d]imidazol-4-yl]-1,2-oxazole-5-carboxamide] | 0.7 | 245
17 | CCc1nc(N2CC3CC3C2)ccc1Cc1cc(C(=O)N[C@@H]2CCc3c2ncn3C)on1 (stereo partly drawn) [Example 146, 3-[(6-{3-Azabicyclo[3.1.0]hexan-3-yl}-2-ethylpyridin-3-yl)methyl]-N-[(4R)-1-methyl-1H,4H,5H,6H-cyclopenta[d]imidazol-4-yl]-1,2-oxazole-5-carboxamide] | 1.1 | 274
18 | Cn1cnc2c1CC[C@H]2NC(=O)c1cc(Cc2ccc(N3CC4C(C3)C4(F)F)nc2CO)no1 (stereo partly drawn) [Example 147, 3-[(6-{6,6-Difluoro-3-azabicyclo[3.1.0]hexan-3-yl}-2-(hydroxymethyl)pyridin-3-yl)methyl]-N-[(4R)-1-methyl-1H,4H,5H,6H-cyclopenta-[d]imidazol-4-yl]-1,2-oxazole-5-carboxamide] | 1.4 | 149
